Experiments:
AXL = biological target: T1, AXL (Homo sapiens, UniProt P30530); assay: KinomeScan; assay type: binding; conditions: read-out: % control
T1 construct: purchased DiscoveRx KINOMEscan

BRAF = biological target: T2, BRAF (Homo sapiens, UniProt P15056); assay: KinomeScan; assay type: binding; conditions: read-out: % control
T2 construct: purchased DiscoveRx KINOMEscan

CDKL5 = biological target: T3, CDKL5 (Homo sapiens, UniProt O76039); assay: KinomeScan; assay type: binding; conditions: read-out: % control
T3 construct: purchased DiscoveRx KINOMEscan

CLK4 = biological target: T4, CLK4 (Homo sapiens, UniProt Q9HAZ1); assay: KinomeScan; assay type: binding; conditions: read-out: % control
T4 construct: purchased DiscoveRx KINOMEscan

CSNK1E = biological target: T5, CSNK1E (Homo sapiens, UniProt P49674); assay: KinomeScan; assay type: binding; conditions: read-out: % control
T5 construct: purchased DiscoveRx KINOMEscan

DCAMKL3 = biological target: T6, DCAMKL3 (Homo sapiens, UniProt Q9C098); assay: KinomeScan; assay type: binding; conditions: read-out: % control
T6 construct: purchased DiscoveRx KINOMEscan

DDR1 = biological target: T7, DDR1 (Homo sapiens, UniProt Q08345); assay: KinomeScan; assay type: binding; conditions: read-out: % control
T7 construct: purchased DiscoveRx KINOMEscan

DDR2 = biological target: T8, DDR2 (Homo sapiens, UniProt Q16832); assay: KinomeScan; assay type: binding; conditions: read-out: % control
T8 construct: purchased DiscoveRx KINOMEscan

EGFR(S752-I759del) = biological target: T9, EGFR(S752-I759del) (Homo sapiens, UniProt P00533, DEL752-759); assay: KinomeScan; assay type: binding; conditions: read-out: % control
T9 construct: purchased DiscoveRx KINOMEscan

EPHA1 = biological target: T10, EPHA1 (Homo sapiens, UniProt P21709); assay: KinomeScan; assay type: binding; conditions: read-out: % control
T10 construct: purchased DiscoveRx KINOMEscan

ERBB2 = biological target: T11, ERBB2 (Homo sapiens, UniProt P04626); assay: KinomeScan; assay type: binding; conditions: read-out: % control
T11 construct: purchased DiscoveRx KINOMEscan

FAK = biological target: T12, FAK (Homo sapiens, UniProt Q05397); assay: KinomeScan; assay type: binding; conditions: read-out: % control
T12 construct: purchased DiscoveRx KINOMEscan

FES = biological target: T13, FES (Homo sapiens, UniProt P07332); assay: KinomeScan; assay type: binding; conditions: read-out: % control
T13 construct: purchased DiscoveRx KINOMEscan

FLT3(D835V) = biological target: T14, FLT3(D835V) (Homo sapiens, UniProt P36888, D835V); assay: KinomeScan; assay type: binding; conditions: read-out: % control
T14 construct: purchased DiscoveRx KINOMEscan

FLT3(ITD) = assay: KinomeScan; assay type: binding; conditions: 1μM
GRK4 = biological target: T15, GRK4 (Homo sapiens, UniProt P32298); assay: KinomeScan; assay type: binding; conditions: read-out: % control
T15 construct: purchased DiscoveRx KINOMEscan

HIPK2 = biological target: T16, HIPK2 (Homo sapiens, UniProt Q9H2X6); assay: KinomeScan; assay type: binding; conditions: read-out: % control
T16 construct: purchased DiscoveRx KINOMEscan

KIT = biological target: T17, KIT (Homo sapiens, UniProt P10721); assay: KinomeScan; assay type: binding; conditions: read-out: % control
T17 construct: purchased DiscoveRx KINOMEscan

KIT(V559D) = biological target: T18, KIT(V559D) (Homo sapiens, UniProt P10721, V559D); assay: KinomeScan; assay type: binding; conditions: read-out: % control
T18 construct: purchased DiscoveRx KINOMEscan

LATS1 = biological target: T19, LATS1 (Homo sapiens, UniProt O95835); assay: KinomeScan; assay type: binding; conditions: read-out: % control
T19 construct: purchased DiscoveRx KINOMEscan

MAP4K5 = biological target: T20, MAP4K5 (Homo sapiens, UniProt Q9Y4K4); assay: KinomeScan; assay type: binding; conditions: read-out: % control
T20 construct: purchased DiscoveRx KINOMEscan

MARK1 = biological target: T21, MARK1 (Homo sapiens, UniProt Q9P0L2); assay: KinomeScan; assay type: binding; conditions: read-out: % control
T21 construct: purchased DiscoveRx KINOMEscan

MARK2 = biological target: T22, MARK2 (Homo sapiens, UniProt Q7KZI7); assay: KinomeScan; assay type: binding; conditions: read-out: % control
T22 construct: purchased DiscoveRx KINOMEscan

MARK3 = biological target: T23, MARK3 (Homo sapiens, UniProt P27448); assay: KinomeScan; assay type: binding; conditions: read-out: % control
T23 construct: purchased DiscoveRx KINOMEscan

MARK4 = biological target: T24, MARK4 (Homo sapiens, UniProt Q96L34); assay: KinomeScan; assay type: binding; conditions: read-out: % control
T24 construct: purchased DiscoveRx KINOMEscan

MST1R = biological target: T25, MST1R (Homo sapiens, UniProt Q04912); assay: KinomeScan; assay type: binding; conditions: read-out: % control
T25 construct: purchased DiscoveRx KINOMEscan

NEK3 = biological target: T26, NEK3 (Homo sapiens, UniProt P51956); assay: KinomeScan; assay type: binding; conditions: read-out: % control
T26 construct: purchased DiscoveRx KINOMEscan

PAK6 = biological target: T27, PAK6 (Homo sapiens, UniProt Q9NQU5); assay: KinomeScan; assay type: binding; conditions: read-out: % control
T27 construct: purchased DiscoveRx KINOMEscan

PCTK1 = biological target: T28, PCTK1 (Homo sapiens, UniProt Q00536); assay: KinomeScan; assay type: binding; conditions: read-out: % control
T28 construct: purchased DiscoveRx KINOMEscan

PIK4CB = biological target: T29, PIK4CB (Homo sapiens, UniProt Q9UBF8); assay: KinomeScan; assay type: binding; conditions: read-out: % control
T29 construct: purchased DiscoveRx KINOMEscan

PLK1 = biological target: T30, PLK1 (Homo sapiens, UniProt P53350); assay: KinomeScan; assay type: binding; conditions: read-out: % control
T30 construct: purchased DiscoveRx KINOMEscan

PRKG2 = biological target: T31, PRKG2 (Homo sapiens, UniProt Q13237); assay: KinomeScan; assay type: binding; conditions: read-out: % control
T31 construct: purchased DiscoveRx KINOMEscan

RET(M918T) = biological target: T32, RET(M918T) (Homo sapiens, UniProt P07949, M918T); assay: KinomeScan; assay type: binding; conditions: read-out: % control
T32 construct: purchased DiscoveRx KINOMEscan

[1] = biological target: T33, RSK3(Kin.Dom.2-C-terminal) (Homo sapiens, UniProt Q15349); assay: KinomeScan; assay type: binding; conditions: read-out: % control
T33 construct: RSK3(Kin.Dom.2-C-terminal); purchased DiscoveRx KINOMEscan

SRPK2 = biological target: T34, SRPK2 (Homo sapiens, UniProt P78362); assay: KinomeScan; assay type: binding; conditions: read-out: % control
T34 construct: purchased DiscoveRx KINOMEscan

STK16 = biological target: T35, STK16 (Homo sapiens, UniProt O75716); assay: KinomeScan; assay type: binding; conditions: read-out: % control
T35 construct: purchased DiscoveRx KINOMEscan

STK39 = biological target: T36, STK39 (Homo sapiens, UniProt Q9UEW8); assay: KinomeScan; assay type: binding; conditions: read-out: % control
T36 construct: purchased DiscoveRx KINOMEscan

TAOK1 = biological target: T37, TAOK1 (Homo sapiens, UniProt Q7L7X3); assay: KinomeScan; assay type: binding; conditions: read-out: % control
T37 construct: purchased DiscoveRx KINOMEscan

TBK1 = biological target: T38, TBK1 (Homo sapiens, UniProt Q9UHD2); assay: KinomeScan; assay type: binding; conditions: read-out: % control
T38 construct: purchased DiscoveRx KINOMEscan

TESK1 = biological target: T39, TESK1 (Homo sapiens, UniProt Q15569); assay: KinomeScan; assay type: binding; conditions: read-out: % control
T39 construct: purchased DiscoveRx KINOMEscan

Parental BaF3 = assay: Anti-proliferation, BaF3 isogenic cell lines (CellTiter-Glo); assay type: cell-based; conditions: Mus musculus
[2] = test system: EGFR Y1068 phosphorylation in BaF3-TEL-EGFR cells; assay: EGFR Y1068 auto-phosphorylation in transformed BaF3 cells; conditions: Mus musculus, BaF3, 4 h, read-out: EC50, phosphorylation of EGFR Y1068

T21 sequence (Q9P0L2 whole entry): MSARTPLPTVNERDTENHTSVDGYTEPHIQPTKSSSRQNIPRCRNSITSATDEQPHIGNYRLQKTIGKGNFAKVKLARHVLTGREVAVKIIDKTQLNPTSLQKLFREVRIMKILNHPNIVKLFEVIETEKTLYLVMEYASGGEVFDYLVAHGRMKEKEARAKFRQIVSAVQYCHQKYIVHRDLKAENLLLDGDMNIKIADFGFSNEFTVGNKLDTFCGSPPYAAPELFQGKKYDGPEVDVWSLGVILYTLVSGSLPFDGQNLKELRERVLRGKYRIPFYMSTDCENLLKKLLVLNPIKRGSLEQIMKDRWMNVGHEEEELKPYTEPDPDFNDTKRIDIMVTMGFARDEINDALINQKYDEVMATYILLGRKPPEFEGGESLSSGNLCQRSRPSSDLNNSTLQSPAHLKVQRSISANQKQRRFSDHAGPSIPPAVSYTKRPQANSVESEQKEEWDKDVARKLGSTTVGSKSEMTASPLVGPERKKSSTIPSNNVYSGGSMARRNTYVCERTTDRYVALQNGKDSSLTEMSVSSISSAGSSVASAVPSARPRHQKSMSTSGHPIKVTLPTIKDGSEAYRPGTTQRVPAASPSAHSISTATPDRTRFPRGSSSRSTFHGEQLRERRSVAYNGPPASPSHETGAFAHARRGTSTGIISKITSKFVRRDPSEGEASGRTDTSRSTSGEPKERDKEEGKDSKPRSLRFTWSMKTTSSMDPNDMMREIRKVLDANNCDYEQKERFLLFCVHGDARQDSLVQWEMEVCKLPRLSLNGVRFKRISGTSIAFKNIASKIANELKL
T16 sequence (Q9H2X6 whole entry): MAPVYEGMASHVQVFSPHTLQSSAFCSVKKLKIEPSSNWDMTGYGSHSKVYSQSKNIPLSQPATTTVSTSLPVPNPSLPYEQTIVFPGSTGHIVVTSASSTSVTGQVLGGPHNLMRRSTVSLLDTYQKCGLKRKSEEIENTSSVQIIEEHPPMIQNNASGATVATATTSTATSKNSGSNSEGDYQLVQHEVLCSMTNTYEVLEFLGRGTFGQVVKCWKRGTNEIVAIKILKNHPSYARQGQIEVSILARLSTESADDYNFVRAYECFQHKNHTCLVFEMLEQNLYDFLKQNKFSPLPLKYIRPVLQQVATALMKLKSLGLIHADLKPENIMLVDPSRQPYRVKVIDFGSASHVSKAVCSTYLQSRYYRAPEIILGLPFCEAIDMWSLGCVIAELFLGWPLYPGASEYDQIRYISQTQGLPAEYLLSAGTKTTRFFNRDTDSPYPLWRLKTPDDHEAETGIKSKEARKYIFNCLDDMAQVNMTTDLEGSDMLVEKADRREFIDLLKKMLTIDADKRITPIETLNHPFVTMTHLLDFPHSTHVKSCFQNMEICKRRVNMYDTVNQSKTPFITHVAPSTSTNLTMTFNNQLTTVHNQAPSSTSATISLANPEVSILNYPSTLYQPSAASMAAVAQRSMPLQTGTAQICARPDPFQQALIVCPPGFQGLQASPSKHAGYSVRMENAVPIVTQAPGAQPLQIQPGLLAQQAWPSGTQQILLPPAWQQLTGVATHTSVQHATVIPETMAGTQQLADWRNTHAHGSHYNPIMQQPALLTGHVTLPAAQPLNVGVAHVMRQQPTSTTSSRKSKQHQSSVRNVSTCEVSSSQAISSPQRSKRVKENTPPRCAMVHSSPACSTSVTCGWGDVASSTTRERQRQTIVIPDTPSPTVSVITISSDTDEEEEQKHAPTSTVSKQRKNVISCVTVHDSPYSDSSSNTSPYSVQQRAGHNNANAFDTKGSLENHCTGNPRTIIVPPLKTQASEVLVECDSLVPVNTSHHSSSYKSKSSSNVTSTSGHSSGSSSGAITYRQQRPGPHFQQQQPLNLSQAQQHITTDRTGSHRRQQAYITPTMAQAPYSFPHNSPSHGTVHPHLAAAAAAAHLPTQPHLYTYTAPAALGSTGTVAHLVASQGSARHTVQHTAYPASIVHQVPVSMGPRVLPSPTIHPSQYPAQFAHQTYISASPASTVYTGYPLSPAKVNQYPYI
T15 sequence (P32298 whole entry): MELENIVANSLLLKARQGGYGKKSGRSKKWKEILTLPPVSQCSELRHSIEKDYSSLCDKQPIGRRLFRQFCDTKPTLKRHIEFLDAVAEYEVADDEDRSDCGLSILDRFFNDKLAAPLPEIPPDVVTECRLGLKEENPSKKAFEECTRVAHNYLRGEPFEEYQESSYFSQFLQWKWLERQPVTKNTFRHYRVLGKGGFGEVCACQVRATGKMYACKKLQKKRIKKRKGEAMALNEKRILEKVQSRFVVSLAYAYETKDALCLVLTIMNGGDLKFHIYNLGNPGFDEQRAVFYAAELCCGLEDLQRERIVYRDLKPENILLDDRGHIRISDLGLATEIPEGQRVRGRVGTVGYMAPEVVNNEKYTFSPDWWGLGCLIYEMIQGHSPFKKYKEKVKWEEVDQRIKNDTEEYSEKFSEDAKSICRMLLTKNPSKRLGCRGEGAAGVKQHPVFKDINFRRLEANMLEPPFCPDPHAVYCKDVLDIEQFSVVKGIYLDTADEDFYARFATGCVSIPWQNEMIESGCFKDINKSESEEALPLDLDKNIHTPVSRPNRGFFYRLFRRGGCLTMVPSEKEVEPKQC
T11 sequence (P04626 23-1255): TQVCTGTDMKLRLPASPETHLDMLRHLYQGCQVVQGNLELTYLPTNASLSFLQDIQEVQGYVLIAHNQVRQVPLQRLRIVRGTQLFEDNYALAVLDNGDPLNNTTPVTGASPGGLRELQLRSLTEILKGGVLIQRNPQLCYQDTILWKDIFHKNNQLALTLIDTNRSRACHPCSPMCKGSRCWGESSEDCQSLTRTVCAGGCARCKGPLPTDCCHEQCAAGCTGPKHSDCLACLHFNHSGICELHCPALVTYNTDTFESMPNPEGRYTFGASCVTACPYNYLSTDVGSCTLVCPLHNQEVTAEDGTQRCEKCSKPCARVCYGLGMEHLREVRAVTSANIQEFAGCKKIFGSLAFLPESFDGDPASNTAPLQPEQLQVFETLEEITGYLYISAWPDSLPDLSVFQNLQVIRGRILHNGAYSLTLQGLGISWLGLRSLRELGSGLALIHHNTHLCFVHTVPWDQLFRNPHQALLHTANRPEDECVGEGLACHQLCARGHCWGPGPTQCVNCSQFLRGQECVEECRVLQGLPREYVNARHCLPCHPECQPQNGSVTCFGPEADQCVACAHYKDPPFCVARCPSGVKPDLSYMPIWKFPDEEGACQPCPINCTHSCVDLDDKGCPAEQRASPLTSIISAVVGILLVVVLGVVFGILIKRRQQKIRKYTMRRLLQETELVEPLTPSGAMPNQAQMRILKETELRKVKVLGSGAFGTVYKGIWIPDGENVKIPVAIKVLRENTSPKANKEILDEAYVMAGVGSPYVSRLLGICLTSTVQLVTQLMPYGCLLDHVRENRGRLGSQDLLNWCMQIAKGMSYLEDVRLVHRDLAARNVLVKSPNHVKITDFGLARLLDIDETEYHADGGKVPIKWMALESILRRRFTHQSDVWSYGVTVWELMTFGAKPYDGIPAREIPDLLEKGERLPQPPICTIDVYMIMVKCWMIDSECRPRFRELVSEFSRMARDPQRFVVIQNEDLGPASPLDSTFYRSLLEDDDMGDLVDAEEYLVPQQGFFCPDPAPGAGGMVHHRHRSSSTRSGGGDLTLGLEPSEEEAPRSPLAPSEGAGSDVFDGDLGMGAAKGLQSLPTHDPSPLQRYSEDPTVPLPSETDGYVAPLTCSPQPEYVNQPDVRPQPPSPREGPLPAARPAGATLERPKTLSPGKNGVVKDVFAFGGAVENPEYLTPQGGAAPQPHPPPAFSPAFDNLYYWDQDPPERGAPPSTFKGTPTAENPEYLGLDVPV
T22 sequence (Q7KZI7 whole entry): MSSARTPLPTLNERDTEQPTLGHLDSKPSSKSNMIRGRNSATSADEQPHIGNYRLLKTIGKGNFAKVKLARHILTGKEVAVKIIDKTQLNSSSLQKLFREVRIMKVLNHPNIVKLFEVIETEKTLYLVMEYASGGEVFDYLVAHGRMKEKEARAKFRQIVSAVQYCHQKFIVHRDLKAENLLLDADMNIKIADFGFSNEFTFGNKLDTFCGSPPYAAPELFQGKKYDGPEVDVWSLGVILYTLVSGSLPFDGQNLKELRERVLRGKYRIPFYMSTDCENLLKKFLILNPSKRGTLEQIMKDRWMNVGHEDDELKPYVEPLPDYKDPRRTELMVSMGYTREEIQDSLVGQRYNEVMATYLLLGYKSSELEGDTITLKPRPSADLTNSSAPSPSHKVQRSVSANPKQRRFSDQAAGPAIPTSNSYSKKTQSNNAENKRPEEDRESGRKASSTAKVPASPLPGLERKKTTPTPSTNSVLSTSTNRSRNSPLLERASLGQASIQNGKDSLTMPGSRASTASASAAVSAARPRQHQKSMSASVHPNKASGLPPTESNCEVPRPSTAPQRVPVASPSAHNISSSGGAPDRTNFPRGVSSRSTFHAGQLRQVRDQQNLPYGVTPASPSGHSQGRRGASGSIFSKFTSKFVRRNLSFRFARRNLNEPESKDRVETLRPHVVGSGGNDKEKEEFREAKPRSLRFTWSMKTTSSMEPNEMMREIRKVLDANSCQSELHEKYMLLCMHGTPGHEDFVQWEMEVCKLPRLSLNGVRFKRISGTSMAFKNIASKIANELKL
T28 sequence (Q00536 whole entry): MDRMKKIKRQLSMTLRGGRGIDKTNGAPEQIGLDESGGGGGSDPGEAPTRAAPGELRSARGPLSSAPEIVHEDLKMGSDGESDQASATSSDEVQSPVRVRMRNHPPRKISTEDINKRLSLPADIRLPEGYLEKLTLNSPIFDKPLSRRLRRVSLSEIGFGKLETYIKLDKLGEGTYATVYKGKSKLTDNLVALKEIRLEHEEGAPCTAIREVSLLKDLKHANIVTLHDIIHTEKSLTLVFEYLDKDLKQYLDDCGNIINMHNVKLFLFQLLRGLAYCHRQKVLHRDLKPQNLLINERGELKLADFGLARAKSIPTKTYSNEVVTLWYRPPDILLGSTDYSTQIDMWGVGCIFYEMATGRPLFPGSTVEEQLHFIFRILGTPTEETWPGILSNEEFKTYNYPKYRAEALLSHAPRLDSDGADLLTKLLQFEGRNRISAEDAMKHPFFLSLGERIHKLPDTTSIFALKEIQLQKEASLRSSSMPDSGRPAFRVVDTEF

## C=CC(=O)N1CCC[C@@H](n2nc(-c3ccc(OCc4cccc(C)n4)c(Cl)c3)c3c(N)ncnc32)C1 [CHMFL-EGFR-26]
AXL
  remaining binding at 1 µM: 83%
BRAF
  remaining binding at 1 µM: 85%
CDKL5
  remaining binding at 1 µM: 100%
CLK4
  remaining binding at 1 µM: 100%
CSNK1E
  remaining binding at 1 µM: 9.1%
DCAMKL3
  remaining binding at 1 µM: 100%
DDR1
  remaining binding at 1 µM: 85%
DDR2
  remaining binding at 1 µM: 90%
EGFR(S752-I759del)
  remaining binding at 1 µM: 12%
EPHA1
  remaining binding at 1 µM: 42%
ERBB2
  remaining binding at 1 µM: 0%
FAK
  remaining binding at 1 µM: 90%
FES
  remaining binding at 1 µM: 97%
FLT3(D835V)
  remaining binding at 1 µM: 70%
FLT3(ITD)
  % control: 87%
GRK4
  remaining binding at 1 µM: 88%
HIPK2
  remaining binding at 1 µM: 100%
KIT
  remaining binding at 1 µM: 100%
KIT(V559D)
  remaining binding at 1 µM: 100%
LATS1
  remaining binding at 1 µM: 82%
MAP4K5
  remaining binding at 1 µM: 54%
MARK1
  remaining binding at 1 µM: 100%
MARK2
  remaining binding at 1 µM: 95%
MARK3
  remaining binding at 1 µM: 100%
MARK4
  remaining binding at 1 µM: 100%
MST1R
  remaining binding at 1 µM: 100%
NEK3
  remaining binding at 1 µM: 83%
PAK6
  remaining binding at 1 µM: 74%
PCTK1
  remaining binding at 1 µM: 100%
PIK4CB
  remaining binding at 1 µM: 100%
PLK1
  remaining binding at 1 µM: 100%
PRKG2
  remaining binding at 1 µM: 100%
RET(M918T)
  remaining binding at 1 µM: 100%
[1]
  remaining binding at 1 µM: 85%
SRPK2
  remaining binding at 1 µM: 100%
STK16
  remaining binding at 1 µM: 100%
STK39
  remaining binding at 1 µM: 92%
TAOK1
  remaining binding at 1 µM: 100%
TBK1
  remaining binding at 1 µM: 100%
TESK1
  remaining binding at 1 µM: 93%
Parental BaF3; Parental BaF3, Supplementary Table 3, read-out: IC50 (anti-proliferative)
  IC50: 9 µM
Parental BaF3; Parental BaF3, 72 hours, triplet testing
  GI50: > 10 µM
[2]
  EC50: 0.05 µM
